Data from paper PMC12147714 (FEMS Microbiology Letters, 2025).
Read-outs that look alike come from different tables or passages of the source.

Tests used:
[1] = system: PAO1 and PAO1 TnoprD producing one of eight different carbapenemases; assay: MIC and checkerboard, isogenic strains as a group; format: cell-based, Pseudomonas aeruginosa
Source text: (§1) Pseudomonas aeruginosa isolate, PAO1, was used alongside its isogenic counterpart, PAO1 TnoprD, which lacks a functional OprD porin (Held et al. [2012]). β-lactamases, blaIMP-1, blaIMP-10, blaIMP-13, blaNDM-1, blaSPM-1, blaVIM-1, blaVIM-2, and blaKPC-2, had previously been cloned into the pUCP24 shuttle vector (Bouvier et al. [2025]), and were transformed by electroporation into both PAO1 and PAO1 TnoprD.
(§2) . MICs of DMSA, CAZ, FEP and checkerboards for the combinations, CAZ/DMSA and FEP/DMSA, were performed for all clinical isolates. All susceptibility testing results were interpreted according to CLSI guidelines (CLSI [2023]). The fractional inhibitory concentration index (FICI) was calculated and interpreted as follows: the MIC of drug A in combination/the MIC of drug A alone + the MIC of drug B in combination/the MIC drug B alone. FICI ≤ 0.5 = synergy; 0.5 < FICI ≤ 1 = additive; FICI 1 < FICI < 2 = indifference, and FICI ≥ 2 = antagonism. All susceptibility testing/checkerboard assays were performed in triplicate.

PAO1 producing IMP-1 = assay: MIC and checkerboard by broth microdilution, recombinant strain; format: cell-based, Pseudomonas aeruginosa; details: antibiotic alone
Source text: as §1, §2

[2] = system: PAO1 TnoprD producing IMP-10; assay: as above; format: cell-based, Pseudomonas aeruginosa; details: IMP-10 TnoprD; antibiotic alone
Source text: as §1, §2

[3] = system: PAO1 TnoprD producing SPM-1; assay: as above; format: cell-based, Pseudomonas aeruginosa; details: SPM-1 TnoprD; antibiotic alone
Source text: as §1, §2

[4] = system: PAO1 TnoprD producing IMP-13; assay: as above; format: cell-based, Pseudomonas aeruginosa; details: IMP-13 TnoprD; antibiotic alone
Source text: as §1, §2

PAO1 producing IMP-13 = assay: as above; format: cell-based, Pseudomonas aeruginosa; details: antibiotic alone
Source text: as §1, §2

[5] = system: PAO1 TnoprD producing VIM-2; assay: as above; format: cell-based, Pseudomonas aeruginosa; details: VIM-2 TnoprD; antibiotic alone
Source text: as §1, §2

PAO1 producing SPM-1 = assay: as above; format: cell-based, Pseudomonas aeruginosa; details: antibiotic alone
Source text: as §1, §2

PAO1 producing VIM-1 = assay: as above; format: cell-based, Pseudomonas aeruginosa; details: antibiotic alone
Source text: as §1, §2

PAO1 producing VIM-2 = assay: as above; format: cell-based, Pseudomonas aeruginosa; details: antibiotic alone
Source text: as §1, §2

PAO1 producing KPC-2 = format: cell-based, Pseudomonas aeruginosa; details: antibiotic alone
Procedure: (§3) The fractional inhibitory concentration index (FICI) was calculated and interpreted as follows: the MIC of drug A in combination/the MIC of drug A alone + the MIC of drug B in combination/the MIC drug B alone. FICI ≤ 0.5 = synergy; 0.5 < FICI ≤ 1 = additive; FICI 1 < FICI < 2 = indifference, and FICI ≥ 2 = antagonism. All susceptibility testing/checkerboard assays were performed in triplicate.

[6] = system: PAO1 TnoprD producing KPC-2; format: cell-based, Pseudomonas aeruginosa; details: KPC-2 TnoprD; antibiotic alone
Procedure: as §3

[7] = system: PAO1 TnoprD producing NDM-1; assay: MIC and checkerboard by broth microdilution, recombinant strain; format: cell-based, Pseudomonas aeruginosa; details: NDM-1 TnoprD; antibiotic alone
Procedure: as §3

PAO1 producing NDM-1 = assay: as above; format: cell-based, Pseudomonas aeruginosa; details: antibiotic alone
Procedure: as §3

[8] = system: PAO1 TnoprD producing VIM-1; assay: as above; format: cell-based, Pseudomonas aeruginosa; details: VIM-1 TnoprD; antibiotic alone
Procedure: as §3

[9] = system: PAO1 TnoprD producing IMP-1; assay: as above; format: cell-based, Pseudomonas aeruginosa; details: IMP-1 TnoprD; antibiotic alone
Procedure: as §3

PAO1 producing IMP-10 = assay: as above; format: cell-based, Pseudomonas aeruginosa; details: antibiotic alone
Procedure: as §3

IMP-13 = IMP-13 (Pseudomonas aeruginosa, UniProt Q7WYA8); assay: IC50, inhibition of cephalothin hydrolysis by crude extract
Chain of IMP-13 (Q7WYA8 21-246): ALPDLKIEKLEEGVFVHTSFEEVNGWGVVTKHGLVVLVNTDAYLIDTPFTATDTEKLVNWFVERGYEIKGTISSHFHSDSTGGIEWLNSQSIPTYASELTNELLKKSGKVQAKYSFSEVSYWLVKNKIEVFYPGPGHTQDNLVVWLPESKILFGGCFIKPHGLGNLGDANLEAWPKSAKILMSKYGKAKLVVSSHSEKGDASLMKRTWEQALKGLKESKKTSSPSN

SPM-1 = SPM-1 (Pseudomonas aeruginosa, UniProt Q8G9Q0); assay: as above
Chain of SPM-1 (Q8G9Q0 entry or part of it): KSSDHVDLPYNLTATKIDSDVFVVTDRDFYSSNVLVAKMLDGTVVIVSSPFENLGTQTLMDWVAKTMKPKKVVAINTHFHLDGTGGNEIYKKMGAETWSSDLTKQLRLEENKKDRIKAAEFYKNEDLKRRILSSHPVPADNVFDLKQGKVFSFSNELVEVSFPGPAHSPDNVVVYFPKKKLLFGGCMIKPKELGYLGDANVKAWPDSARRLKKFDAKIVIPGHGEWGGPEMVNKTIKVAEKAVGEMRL

IMP-1 = IMP-1 (Serratia marcescens, UniProt P52699); assay: as above
Chain of IMP-1 (P52699 19-246 limits assumed): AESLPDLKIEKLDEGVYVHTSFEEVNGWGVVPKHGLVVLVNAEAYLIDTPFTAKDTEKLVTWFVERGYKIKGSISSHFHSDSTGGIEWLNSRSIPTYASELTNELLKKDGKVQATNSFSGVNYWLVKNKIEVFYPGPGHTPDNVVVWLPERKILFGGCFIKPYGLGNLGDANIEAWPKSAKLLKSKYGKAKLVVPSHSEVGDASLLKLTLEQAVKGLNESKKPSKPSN

IMP-10 [10] = biological target: T1, IMP-10 (Serratia marcescens, UniProt P52699, V49F); assay: as above
T1 sequence (P52699 19-246 V49F): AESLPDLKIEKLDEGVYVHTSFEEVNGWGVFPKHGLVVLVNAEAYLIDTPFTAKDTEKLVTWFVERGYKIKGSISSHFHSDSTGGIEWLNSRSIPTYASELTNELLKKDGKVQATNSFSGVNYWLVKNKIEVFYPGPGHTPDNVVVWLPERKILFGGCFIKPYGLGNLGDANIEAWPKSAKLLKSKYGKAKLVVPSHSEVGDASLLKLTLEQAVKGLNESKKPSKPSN

VIM-2 = VIM-2 (Escherichia coli, UniProt Q5U7L7); assay: as above
VIM-1 = VIM-1 (Pseudomonas aeruginosa, UniProt A0A0F7KYQ8); assay: as above
IMP-producers = system: IMP-producers; set-up: method as in Hamrick et al. 2020, Le Terrier et al. 2024; details: ref Hamrick et al. 2020, Le Terrier et al. 2024; cited from earlier work
IMP-10 [11] = biological target: T1, IMP-10; details: ref Le Terrier et al. 2024; cited from earlier work

Structure (SMILES)	MIC (PAO1 producing IMP-1)	MIC [2]	MIC [3]	MIC [4]	MIC (PAO1 producing IMP-13)	MIC [5]	MIC (PAO1 producing SPM-1)	MIC (PAO1 producing VIM-1)	MIC (PAO1 producing VIM-2)	MIC (PAO1 producing KPC-2)	MIC [6]	MIC [7]	MIC (PAO1 producing NDM-1)	MIC [9]	MIC (PAO1 producing IMP-10)	other results
CO/N=C(\C(=O)N[C@@H]1C(=O)N2C(C(=O)[O-])=C(C[N+]3(C)CCCC3)CS[C@H]12)c1csc(N)n1 [FEP, cefepime]	512 µg/mL	256 µg/mL	64 µg/mL	16 µg/mL	16 µg/mL	2 µg/mL	64 µg/mL	512 µg/mL	2 µg/mL	512 µg/mL	512 µg/mL	256 µg/mL	256 µg/mL	512 µg/mL	256 µg/mL	interaction with DMSA as indicated by the FICIs ([1]; strains producing IMP-1, IMP-10 or IMP-13, with and without functional OprD, all three DMSA concentrations (100, 200, 300 mg/l)): synergy (FICI ≤ 0.5 = synergy); MIC [8]: 512 µg/mL
C[C@@H](O)[C@H]1C(=O)N2C(C(=O)O)=C(SCCN=CN)C[C@H]12 [IPM, imipenem]	16 µg/mL	64 µg/mL	16 µg/mL	8 µg/mL	1 µg/mL	32 µg/mL	2 µg/mL	64 µg/mL	4 µg/mL	–	512 µg/mL	–	32 µg/mL	64 µg/mL	8 µg/mL	–
C[C@@H](O)[C@H]1C(=O)N2C(C(=O)O)=C(S[C@@H]3CN[C@H](C(=O)N(C)C)C3)[C@H](C)[C@H]12 [MEM, meropenem]	64 µg/mL	256 µg/mL	64 µg/mL	8 µg/mL	4 µg/mL	8 µg/mL	32 µg/mL	64 µg/mL	4 µg/mL	256 µg/mL	512 µg/mL	256 µg/mL	–	–	–	interaction with DMSA as indicated by the FICIs ([1]; SPM-1 strains, DMSA 200 and 300 mg/l): synergy (FICI ≤ 0.5 = synergy); interaction with DMSA as indicated by the FICIs ([1]; strains producing IMP-1, IMP-10 or IMP-13, with and without functional OprD, DMSA 200 and 300 mg/l): synergy (FICI ≤ 0.5 = synergy)
NCCN[C@H]1CC[C@H](CC(=O)N[C@H]2Cc3cccc(C(=O)O)c3OB2O)CC1 [TAN, taniborbactam]	–	–	–	–	–	–	–	–	–	–	–	–	–	–	–	IC50 (IMP-13; IMP-13, 100 μM cephalothin, pH 7.0): > 1000 µM; IC50 (SPM-1; SPM-1, 100 μM cephalothin, pH 7.0): 2.7 µM; IC50 (IMP-1; IMP-1, 100 μM cephalothin, pH 7.0): > 1000 µM; IC50 (IMP-10 [10]; IMP-10, 100 μM cephalothin, pH 7.0): > 1000 µM; IC50 (VIM-2; VIM-2, 100 μM cephalothin, pH 7.0): 0.5 µM; IC50 (VIM-1; VIM-1, 100 μM cephalothin, pH 7.0): 0.8 µM; activity against IMP-producers (IMP-producers): poor activity
O=C(O)c1c(F)ccc2c1OB(O)[C@@H]1C[C@H]21 [XER, xeruborbactam]	–	–	–	–	–	–	–	–	–	–	–	–	–	–	–	IC50 (IMP-13): 3.6 µM; IC50 (SPM-1): > 1000 µM; IC50 (IMP-1): 2.7 µM; IC50 (IMP-10 [10]): 73 µM; IC50 (VIM-2): 0.1 µM; activity against IMP-10 (IMP-10 [11]): limited activity; IC50 (VIM-1): 0.5 µM
